CCOc1cc(C=O)ccc1O
solubility (mole fraction)
Conditions	273.15 K	278.15 K	283.15 K	288.15 K	293.15 K	298.15 K	303.15 K	308.15 K	313.15 K
in acetone	0.199	0.216	0.237	0.271	0.3	0.33	0.369	0.416	0.459
in ethanol	0.0564	0.0721	0.0911	0.109	0.141	0.183	0.224	0.283	0.34
in isopropanol	0.0336	0.0433	0.0552	0.072	0.0957	0.124	0.166	0.221	0.294
in methanol	0.0867	0.114	0.147	0.181	0.214	0.257	0.307	0.358	0.418
